Numbered stars: 1 amine (or outer) side, 2 acyl side, 3 side chain; on linkers, the order of the positions; unused ones are H or OH. Bridge positions count the residues as written; N and C are the ends. Square brackets hold non-standard residues; d marks the D form. Peptide text beside a SMILES is read from it. * marks the point of attachment. Tartaroyl(2R,3R-(OAc)2) = CC(=O)O[C@@H](C(=O)[*:1])[C@@H](OC(C)=O)C(=O)[*:2]; Phe(4-NO2) = N[C@@H](Cc1ccc([N+](=O)[O-])cc1)C(=O)O; Phe(4-CF3) = N[C@@H](Cc1ccc(C(F)(F)F)cc1)C(=O)O; Phe(4-COOH) = N[C@@H](Cc1ccc(C(=O)O)cc1)C(=O)O; Bip = N[C@@H](Cc1ccc(-c2ccccc2)cc1)C(=O)O; dBip = N[C@H](Cc1ccc(-c2ccccc2)cc1)C(=O)O; dPhe(4-NH2) = Nc1ccc(C[C@@H](N)C(=O)O)cc1; dPhe(4-Br) = N[C@H](Cc1ccc(Br)cc1)C(=O)O; Phe(4-NH2) = Nc1ccc(C[C@H](N)C(=O)O)cc1; dPhe(2-Cl) = N[C@H](Cc1ccccc1Cl)C(=O)O; d(hPhe) = N[C@H](CCc1ccccc1)C(=O)O; hPhe = N[C@@H](CCc1ccccc1)C(=O)O; d4Pal = N[C@H](Cc1ccncc1)C(=O)O; 2Thi = N[C@@H](Cc1cccs1)C(=O)O; d2Thi = N[C@H](Cc1cccs1)C(=O)O; NH(CH2)2O(CH2)2NH2 = NCCOCCN*; Suc = O=C(CCC(=O)[*:2])[*:1]; Aib = CC(C)(N)C(=O)O; GABA = NCCCC(=O)O; OtBu = CC(C)(C)O*; βAla = NCCC(=O)O
molecular target: T1, TNFα / TNFα receptor (TNFα R1/Fc) (Homo sapiens, UniProt P01375); assay: Inhibition of binding of TNFα to the TNFα receptor (plate ELISA competition); settings: Table 2; read-out: Activity (IC50, inhibition of TNFα binding to TNFα R1/Fc)
T1 construct: purchased R&D Systems
Procedure, shortened: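 Compound dilutions were preincubated 30 min at RT with 8.33 nM TNFα R1/Fc in PBST with 2% DMSO, then added to wells coated with 15 nM TNFα for 30 min. Bound receptor was detected with HRP anti-human Fc and TMB, read as A450.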

T1 sequence (P01375 77-233 limits assumed, species assumed): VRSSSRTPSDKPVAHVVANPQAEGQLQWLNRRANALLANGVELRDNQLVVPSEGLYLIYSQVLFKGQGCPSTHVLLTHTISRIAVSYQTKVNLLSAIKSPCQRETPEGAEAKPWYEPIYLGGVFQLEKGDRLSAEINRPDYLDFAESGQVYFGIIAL

SMILES | IC50 [µM]
NCCCC[C@H](NC(=O)[C@@H]1Cc2ccc(cc2)NC(=O)[C@H](O)[C@@H](O)C(=O)N[C@H](Cc2cccs2)C(=O)N[C@@H](Cc2ccc(-c3ccccc3)cc2)C(=O)N[C@H](Cc2ccccc2)C(=O)N1)C(=O)O [Compound 296] | 30 to 100
O=C1CCC(=O)N[C@H](Cc2ccccc2)C(=O)N[C@@H](Cc2ccc(-c3ccccc3)cc2)C(=O)N[C@H](CCc2ccccc2)C(=O)N[C@H](C(=O)N[C@H](Cc2ccccc2)C(=O)O)Cc2ccc(cc2)N1 [Compound 455] ([dF][Bip][d(hPhe)][Phe(4-NH2)][dF]-OH; linker N-4 via Suc) | > 100
CC(=O)O[C@H]1C(=O)Nc2ccc(cc2)C[C@H](C(=O)N[C@@H](Cc2ccccc2)C(=O)O)NC(=O)[C@H](CCc2ccccc2)NC(=O)[C@@H](Cc2ccc(Br)cc2)NC(=O)[C@H](Cc2cccs2)NC(=O)[C@@H]1OC(C)=O [Compound 415] ([2Thi][dPhe(4-Br)][hPhe][dPhe(4-NH2)]F-OH; linker N-4 via Tartaroyl(2R,3R-(OAc)2)) | > 100
O=C(O)CCNC(=O)[C@@H]1Cc2ccc(cc2)NC(=O)CCC(=O)N[C@H](Cc2ccccc2)C(=O)N[C@@H](Cc2ccc(-c3ccccc3)cc2)C(=O)N[C@H](CCc2ccccc2)C(=O)N1 [Compound 459] ([dF][Bip][d(hPhe)][Phe(4-NH2)][βAla]-OH; linker N-4 via Suc) | > 100
O=C(O)CC[C@@H]1NC(=O)[C@H](Cc2ccc(-c3ccccc3)cc2)NC(=O)[C@H](Cc2cccs2)NC(=O)COc2ccc(cc2)C[C@@H](C(=O)O)NC1=O [Compound 258] | > 100
O=C(O)[C@@H]1Cc2ccc(cc2)NC(=O)[C@H](O)[C@@H](O)C(=O)N[C@H](Cc2cccnc2)C(=O)N[C@@H](Cc2ccc(-c3ccccc3)cc2)C(=O)N[C@H](Cc2ccccc2)C(=O)N1 [Compound 311] | 30 to 100
O=C1CCC(=O)N[C@H](CCc2ccccc2)C(=O)N[C@@H](Cc2ccc(-c3cccc(Cl)c3)cc2)C(=O)N[C@H](Cc2ccccc2)C(=O)N[C@H](C(=O)O)Cc2ccc(cc2)N1 [Compound 171] | > 100
O=C(O)[C@H](Cc1cccnc1)NC(=O)[C@@H]1Cc2ccc(cc2)NC(=O)[C@H](O)[C@@H](O)C(=O)N[C@H](Cc2cccs2)C(=O)N[C@@H](Cc2ccc(-c3ccccc3)cc2)C(=O)N[C@H](CCc2ccccc2)C(=O)N1 [Compound 405] | > 100
CC(C)(C)OC(=O)CC[C@@H]1NC(=O)[C@H](Cc2ccc(-c3ccccc3)cc2)NC(=O)[C@@H](Cc2cccs2)NC(=O)CCC(=O)Nc2ccc(cc2)C[C@@H](C(=O)O)NC1=O [Compound 66] ([d2Thi][Bip]E(OtBu)[Phe(4-NH2)]-OH; linker N-4 via Suc) | > 100
O=C1N[C@@H](C(=O)O)Cc2ccc(cc2)NC(=O)[C@H](O)[C@@H](O)C(=O)N[C@@H](Cc2cccs2)C(=O)N[C@H](Cc2ccc(-c3ccccc3)cc2)C(=O)N[C@H]1Cc1ccccc1 [Compound 278] | > 100
O=C1CCC(=O)N[C@H](Cc2cccs2)C(=O)N[C@@H](Cc2ccc(-c3ccccc3)cc2)C(=O)N[C@H](Cc2ccncc2)C(=O)N[C@H](C(=O)O)Cc2ccc(cc2)N1 [Compound 50] ([d2Thi][Bip][d4Pal][Phe(4-NH2)]-OH; linker N-4 via Suc) | > 100
O=C1CCCc2cn(nn2)C[C@@H](C(=O)O)NC(=O)[C@@H](Cc2ccccc2)NC(=O)[C@H](Cc2ccc(C(F)(F)F)cc2)NC(=O)[C@@H](CCc2ccccc2)N1 [Compound 543] | > 100
CC(C)(NC(=O)[C@H]1Cc2ccc(cc2)NC(=O)CCC(=O)N[C@H](CCc2ccccc2)C(=O)N[C@@H](Cc2ccc(C(F)(F)F)cc2)C(=O)N[C@H](Cc2ccccc2)C(=O)N1)C(=O)O [Compound 14] ([d(hPhe)][Phe(4-CF3)][dF][dPhe(4-NH2)][Aib]-OH; linker N-4 via Suc) | 30 to 100
O=C1CCC(=O)N[C@H](CCc2ccccc2)C(=O)N[C@@H](Cc2ccc(C(F)(F)F)cc2)C(=O)N[C@H](Cc2ccccc2Cl)C(=O)N[C@H](C(=O)O)Cc2ccc(cc2)N1 [Compound 226] ([d(hPhe)][Phe(4-CF3)][dPhe(2-Cl)][Phe(4-NH2)]-OH; linker N-4 via Suc) | 10 to 30
CC(=O)N[C@H]1CC(=O)N[C@H](Cc2cccs2)C(=O)N[C@@H](Cc2ccc(-c3ccccc3)cc2)C(=O)N[C@H](Cc2ccccc2)C(=O)N[C@H](C(=O)O)Cc2ccc(cc2)NC1=O [Compound 377] | > 100
O=C1CCC(=O)N[C@H](Cc2cccs2)C(=O)N[C@@H](Cc2ccc([N+](=O)[O-])cc2)C(=O)N[C@H](Cc2ccccc2)C(=O)N[C@H](C(=O)O)Cc2ccc(cc2)N1 [Compound 106] ([d2Thi][Phe(4-NO2)][dF][Phe(4-NH2)]-OH; linker N-4 via Suc) | > 100
O=C1COc2ccc(cc2)C[C@@H](C(=O)O)NC(=O)[C@H](c2ccccc2)NC(=O)[C@H](Cc2ccc(-c3ccccc3)cc2)NC(=O)[C@H](Cc2cccs2)N1 [Compound 291] | > 100
O=C1CCC(=O)N[C@H](CCc2ccccc2)C(=O)N[C@@H](Cc2ccc(-c3cccc(O)c3)cc2)C(=O)N[C@H](Cc2ccccc2)C(=O)N[C@H](C(=O)O)Cc2ccc(cc2)N1 [Compound 169] | > 100
O=C1CN(Cc2ccccc2)C(=O)[C@@H](Cc2ccc(-c3ccccc3)cc2)NC(=O)[C@H](Cc2cccs2)NC(=O)COc2ccc(cc2)C[C@@H](C(=O)O)N1 [Compound 253] | > 100
O=C(O)CCCNC(=O)[C@@H]1Cc2ccc(cc2)C(=O)N[C@H](CCc2ccccc2)C(=O)N[C@@H](Cc2ccc(-c3ccccc3)cc2)C(=O)N[C@H](Cc2ccccc2)C(=O)N1 [Compound 425] ([d(hPhe)][Bip][dF][Phe(4-COOH)][GABA]-OH; lactam N-4) | 30 to 100
N[C@H]1CC(=O)N[C@H](Cc2cccs2)C(=O)N[C@@H](Cc2ccc(-c3ccccc3)cc2)C(=O)N[C@H](Cc2ccccc2)C(=O)N[C@H](C(=O)O)Cc2ccc(cc2)NC1=O [Compound 373] | > 100
O=C1COc2ccc(cc2)C[C@@H](C(=O)O)NC(=O)[C@@H](C/C=C/c2ccccc2)NC(=O)[C@H](Cc2ccc(-c3ccccc3)cc2)NC(=O)[C@@H](Cc2cccs2)N1 [Compound 537] | > 100
COc1cccc(C[C@H]2NC(=O)[C@H](Cc3cccs3)NC(=O)COc3ccc(cc3)C[C@@H](C(=O)O)NC(=O)[C@H](Cc3ccccc3)NC2=O)c1 [Compound 407] | > 100
C[C@@H]1NC(=O)[C@@H](Cc2cccs2)NC(=O)CCC(=O)Nc2ccc(cc2)C[C@@H](C(=O)O)NC(=O)[C@@H](Cc2ccccc2)NC1=O [Compound 45] ([d2Thi]A[dF][Phe(4-NH2)]-OH; linker N-4 via Suc) | > 100

The remaining lines, values ahead:

IC50 [µM] | SMILES
10 to 30 | O=C1CCC(=O)N[C@H](Cc2ccccc2)C(=O)N[C@@H](Cc2ccc(-c3ccccc3)cc2)C(=O)N[C@H](CCc2ccccc2)C(=O)N[C@H](C(=O)O)Cc2ccc(cc2)N1 [Compound 454] ([dF][Bip][d(hPhe)][Phe(4-NH2)]-OH; linker N-4 via Suc)
10 to 30 | CC(=O)N[C@@H]1CC(=O)Nc2ccc(cc2)C[C@@H](C(=O)O)NC(=O)[C@@H](Cc2ccccc2)NC(=O)[C@H](Cc2ccc(-c3ccccc3)cc2)NC(=O)[C@@H](Cc2cccs2)NC1=O [Compound 376] (Ac-[dD][d2Thi][Bip][dF][Phe(4-NH2)]-OH; lactam 1-5)
< 10 | O=C(O)[C@H](Cc1ccccc1)NC(=O)[C@H]1Cc2ccc(cc2)NC(=O)[C@H](O)[C@@H](O)C(=O)N[C@@H](Cc2cccs2)C(=O)N[C@H](Cc2ccc(-c3ccccc3)cc2)C(=O)N[C@@H](Cc2ccccc2)C(=O)N1 [Compound 434]
< 10 | CC(=O)O[C@H]1C(=O)Nc2ccc(cc2)C[C@@H](C(=O)N[C@@H](Cc2ccccc2)C(=O)O)NC(=O)[C@H](CCc2ccccc2)NC(=O)[C@@H](Cc2ccc(-c3ccccc3)cc2)NC(=O)[C@H](Cc2cccs2)NC(=O)[C@@H]1OC(C)=O [Compound 412] ([2Thi][dBip][hPhe][Phe(4-NH2)]F-OH; linker N-4 via Tartaroyl(2R,3R-(OAc)2))
< 10 | O=C1COc2ccc(cc2)C[C@@H](C(=O)O)NC(=O)[C@H](Cc2ccc(-c3ccccn3)cc2)NC(=O)[C@@H](Cc2ccc(-c3ccccc3)cc2)NC(=O)[C@H](Cc2ccncc2)N1 [Compound 643]
< 10 | O=C(O)CNC(=O)CNC(=O)[C@@H]1Cc2ccc(cc2)OCC(=O)N[C@@H](Cc2cccs2)C(=O)N[C@H](Cc2ccc(-c3ccccc3)cc2)C(=O)N[C@@H](CCc2ccccc2)C(=O)N1 [Compound 479]
< 10 | CC(=O)O[C@H]1C(=O)Nc2ccc(cc2)C[C@H](C(=O)N[C@@H](Cc2ccccc2)C(=O)O)NC(=O)[C@@H](CCc2ccccc2)NC(=O)[C@H](Cc2ccc(-c3ccccc3)cc2)NC(=O)[C@@H](Cc2cccs2)NC(=O)[C@@H]1OC(C)=O [Compound 409] ([d2Thi][Bip][d(hPhe)][dPhe(4-NH2)]F-OH; linker N-4 via Tartaroyl(2R,3R-(OAc)2))
< 10 | COc1cccc(C[C@@H]2NC(=O)[C@@H](Cc3ccc(-c4ccccc4)cc3)NC(=O)[C@H](Cc3ccncc3)NC(=O)COc3ccc(cc3)C[C@@H](C(=O)O)NC2=O)c1 [Compound 638]
< 10 | NCCOCCNC(=O)[C@@H]1Cc2ccc(cc2)NC(=O)CCC(=O)N[C@H](Cc2cccs2)C(=O)N[C@@H](Cc2ccc(-c3ccccc3)cc2)C(=O)N[C@H](Cc2ccccc2)C(=O)N1 [Compound 193] ([d2Thi][Bip][dF][Phe(4-NH2)]-{NH(CH2)2O(CH2)2NH2}; linker N-4 via Suc)
< 10 | O=C1COc2ccc(cc2)C[C@@H](C(=O)O)NC(=O)[C@H](CCc2ccccc2)NC(=O)[C@@H](Cc2ccc(-c3ccccc3)cc2)NC(=O)[C@H](Cc2cn(-c3ccccc3)nn2)N1 [Compound 693]
< 10 | O=C1COc2ccc(cc2)C[C@@H](C(=O)O)NC(=O)[C@H](CCc2ccccc2)NC(=O)[C@@H](Cc2ccc(-c3ccccc3)cc2)NC(=O)[C@H](Cc2ccc(-c3ccncc3)cc2)N1 [Compound 684]
< 10 | O=C(O)CNC(=O)[C@@H]1Cc2ccc(cc2)OCC(=O)N[C@@H](Cc2cccs2)C(=O)N[C@H](Cc2ccc(-c3ccccc3)cc2)C(=O)N[C@@H](CCc2ccccc2)C(=O)N1 [Compound 472]

From US8338565B2, “Macrocyclic compounds for inhibition of tumor necrosis factor alpha” (Ensemble Therapeutics Corporation, priority 2008, dated 2012)
